In patent US9708349B2, “Borates for photoactivated chemical bleaching” (GENERAL ELECTRIC COMPANY, priority 2015, dated 2017):

Test: Stability of solid borate on exposure to air (1HNMR)

c1ccc(C[B-](c2ccccc2)(c2ccccc2)c2ccccc2)cc1 [MBB, monobenzyltriphenyl borate]
time to evidence of decomposition: < 10 min
